Experimental data published in patent EP0523769B1, “Gram-positive alkaliphilic microorganisms” (GENENCOR INTERNATIONAL, INC., priority 1991, dated 1993).

Tested on: Gram-positive alkaliphilic bacteria
Assay: Antibiotic sensitivity, susceptibility test discs (characters 84-105)
Format: cell-based

Compound | Percentage Positive States, antibiotic sensitivity (CLUSTER 1) [%] | Percentage Positive States, antibiotic sensitivity (CLUSTER 2) [%] | Percentage Positive States, antibiotic sensitivity (CLUSTER 3) [%] | Percentage Positive States, antibiotic sensitivity (CLUSTER 4) [%] | Percentage Positive States, antibiotic sensitivity (CLUSTER 5) [%] | Percentage Positive States, antibiotic sensitivity (CLUSTER 6) [%]
NC[C@@H]1O[C@H](O[C@H]2[C@@H](O)[C@H](O[C@@H]3[C@@H](O)[C@H](N)C[C@H](N)[C@H]3O[C@H]3O[C@H](CN)[C@@H](O)[C@H](O)[C@H]3N)O[C@@H]2CO)[C@H](N)[C@@H](O)[C@@H]1O [Neomycin] | 0 | 0 | 0 | 50 | 17 | 0
Tetracyclin | 80 | 60 | 0 | 100 | 100 | 25
Polymixin | 40 | 20 | 0 | 0 | 0 | 0
Gentamycin | 60 | 0 | 50 | 50 | 50 | 25
